{"source": "patent US20130184316A1", "about": "“METHODS FOR DIAGNOSING AND TREATING CONCUSSIVE DISORDERS” (priority 2010, published 2013)", "key": {"subject with PCS": {"test_system": "subject with PCS", "experiment": "PCS Symptom Cluster Scale, weighted point system", "assay_type": "in vivo, human", "set-up": "key to Raw score: Vertigo / Raw score: Persistence or perseveration of proprioceptive sensations (e.g., feeling motion after coming to rest) / Raw score: Diplopia / Raw score: Impairment of gait: 0 never, 1 sometimes, 2 often, 3 always/nearly always present; key to Weighted Score: Vertigo / Weighted Score: Insomnia / Weighted Score: Difficulty in standing for more than 5 minutes: raw frequency score (0-3) multiplied by weight factor", "details": "after therapy with 4-AP", "source_text": "In one embodiment, a point system is presented in which symptoms from each cluster are further assigned a point value. The evaluation should rate the frequency of each symptom over the span of about one week prior to the assessment, according to the following scale: 0—Never present, 1—Sometimes present, 2—Often present, 3—Always or Nearly always present. In this context, occurrence of a symptom from about 1 to 5 times per week would classify as sometimes present, occurrence from about 5 to about 10 times per week would classify as often present, and occurrence about 10 or more times per week would classify as always or nearly always present. The rating number for each item should be recorded as the raw score. Each raw score should then be multiplied by the weight factor to obtain the weighted score.\nTo achieve this goal, a point system was applied to discrete symptoms within symptom Clusters to specifically define a class of PCS patient that will be likely to benefit from treatment from 4-AP. According to the weighted point system, symptoms from each cluster are further assigned a point value. The frequency of each symptom over the span of about one week prior to the assessment was rated according to the following scale: 0—Never present, 1—Sometimes present, 2—Often present, 3—Always or Nearly always present. The rating number for each item was recorded as the raw score, and the raw score was then multiplied by the weight factor to obtain the weighted score."}, "[1]": {"test_system": "multiple sclerosis patients", "details": "orally administered, over a period of days, literature; cited from earlier work"}, "[2]": {"details": "Cluster A, raw score x weight 1, prior to therapy 3"}, "[3]": {"details": "Cluster A, raw score x weight 3, prior to therapy 6"}, "[4]": {"details": "Cluster B, raw score x weight 4, prior to therapy 8"}, "[5]": {"details": "Cluster C, raw score x weight 2, prior to therapy 2"}, "[6]": {"details": "Cluster C, raw score x weight 3, prior to therapy 9"}}}
{"smiles": "Nc1ccncc1", "note": "[4-AP, 4-Amino pyridine]", "values": [{"measurement": "Raw score: Difficulty in standing for more than 5 minutes", "setting": "subject with PCS; Cluster A, prior to therapy 0", "result": 0}, {"measurement": "Raw score: Difficulty moving body position (e.g., from chair to bed or toilet)", "setting": "subject with PCS; Cluster A, prior to therapy 1", "result": 0}, {"measurement": "Raw score: Difficulty maintaining balance while looking over shoulder", "setting": "subject with PCS; Cluster A, prior to therapy 2", "result": 0}, {"measurement": "Raw score: Difficulty rising unaided from a sitting position or from sitting on the floor", "setting": "subject with PCS; Cluster A, prior to therapy 2", "result": 0}, {"measurement": "Raw score: Impairment of gait", "setting": "subject with PCS; Cluster A, prior to therapy 2", "result": 0}, {"measurement": "Raw score: Inability to maintain stability while standing with eyes closed or with feet together", "setting": "subject with PCS; Cluster A, prior to therapy 2", "result": "1 (Sometimes present)"}, {"measurement": "Raw score: Difficulty conversing while walking", "setting": "subject with PCS; Cluster A, prior to therapy 3", "result": "1 (Sometimes present)"}, {"measurement": "Raw score: Difficulty tossing objects from hand to hand while walking", "setting": "subject with PCS; Cluster A, prior to therapy 3", "result": "1 (Sometimes present)"}, {"measurement": "Raw score: Inability to maintain heel-to-toe gait", "setting": "subject with PCS; Cluster A, prior to therapy 3", "result": "1 (Sometimes present)"}, {"measurement": "Weighted Score: Difficulty moving body position (e.g., from chair to bed or toilet)", "setting": "subject with PCS; Cluster A, raw score x weight 1, prior to therapy 1", "result": 0}, {"measurement": "Weighted Score: Difficulty rising unaided from a sitting position or from sitting on the floor", "setting": "subject with PCS; Cluster A, raw score x weight 1, prior to therapy 2", "result": 0}, {"measurement": "Weighted Score: Difficulty tossing objects from hand to hand while walking", "setting": "subject with PCS; [2]", "result": 1}, {"measurement": "Weighted Score: Inability to maintain heel-to-toe gait", "setting": "subject with PCS; [2]", "result": 1}, {"measurement": "Weighted Score: Difficulty in standing for more than 5 minutes", "setting": "subject with PCS; Cluster A, raw score x weight 2, prior to therapy 0", "result": 0}, {"measurement": "Weighted Score: Difficulty maintaining balance while looking over shoulder", "setting": "subject with PCS; Cluster A, raw score x weight 2, prior to therapy 4", "result": 0}, {"measurement": "Weighted Score: Impairment of gait", "setting": "subject with PCS; [3]", "result": 0}, {"measurement": "Weighted Score: Inability to maintain stability while standing with eyes closed or with feet together", "setting": "subject with PCS; [3]", "result": 3}, {"measurement": "Weighted Score: Difficulty conversing while walking", "setting": "subject with PCS; Cluster A, raw score x weight 3, prior to therapy 9", "result": 3}, {"measurement": "Raw score: Oscillopsia (perception of stationary objects moving)", "setting": "subject with PCS; Cluster B, prior to therapy 2", "result": 0}, {"measurement": "Raw score: Persistence or perseveration of proprioceptive sensations (e.g., feeling motion after coming to rest)", "setting": "subject with PCS; Cluster B, prior to therapy 2", "result": 0}, {"measurement": "Raw score: Persistent sensation of walking on soft or moving surface", "setting": "subject with PCS; Cluster B, prior to therapy 2", "result": 0}, {"measurement": "Raw score: Vertigo", "setting": "subject with PCS; Cluster B, prior to therapy 2", "result": 0}, {"measurement": "Raw score: Vestibular seizures", "setting": "subject with PCS; Cluster B, prior to therapy 2", "result": 0}, {"measurement": "Raw score: Persistent sensation of being off-balance or tilted", "setting": "subject with PCS; Cluster B, prior to therapy 3", "result": "1 (Sometimes present)"}, {"measurement": "Weighted Score: Vertigo", "setting": "subject with PCS; Cluster B, raw score x weight 2, prior to therapy 6", "result": 0}, {"measurement": "Weighted Score: Persistent sensation of walking on soft or moving surface", "setting": "subject with PCS; Cluster B, raw score x weight 3, prior to therapy 6", "result": 0}, {"measurement": "Weighted Score: Oscillopsia (perception of stationary objects moving)", "setting": "subject with PCS; [4]", "result": 0}, {"measurement": "Weighted Score: Persistence or perseveration of proprioceptive sensations (e.g., feeling motion after coming to rest)", "setting": "subject with PCS; [4]", "result": 0}, {"measurement": "Weighted Score: Persistent sensation of being off-balance or tilted", "setting": "subject with PCS; Cluster B, raw score x weight 4, prior to therapy 12", "result": 4}, {"measurement": "Weighted Score: Vestibular seizures", "setting": "subject with PCS; Cluster B, raw score x weight 5, prior to therapy 10", "result": 0}, {"measurement": "Raw score: Apathy, listlessness, blunting of affect", "setting": "subject with PCS; Cluster C, prior to therapy 1", "result": 0}, {"measurement": "Raw score: Emotional lability or exaggerated emotions", "setting": "subject with PCS; Cluster C, prior to therapy 1", "result": 0}, {"measurement": "Raw score: Persistent or frequent irritability", "setting": "subject with PCS; Cluster C, prior to therapy 1", "result": 0}, {"measurement": "Raw score: Persisting difficulty with registration or retention of newly presented information in any modality", "setting": "subject with PCS; Cluster C, prior to therapy 2", "result": "1 (Sometimes present)"}, {"measurement": "Raw score: Inability to perform two simple tasks concurrently (multitasking)", "setting": "subject with PCS; Cluster C, prior to therapy 3", "result": "1 (Sometimes present)"}, {"measurement": "Raw score: Inability to tolerate distraction (e.g., inability to complete simple task or resume conversation after interruption)", "setting": "subject with PCS; Cluster C, prior to therapy 3", "result": "1 (Sometimes present)"}, {"measurement": "Raw score: Intolerance of noise, light, or commotion", "setting": "subject with PCS; Cluster C, prior to therapy 3", "result": "1 (Sometimes present)"}, {"measurement": "Raw score: Slowed speed of mental processing or responding", "setting": "subject with PCS; Cluster C, prior to therapy 3", "result": 0}, {"measurement": "Weighted Score: Apathy, listlessness, blunting of affect", "setting": "subject with PCS; [5]", "result": 0}, {"measurement": "Weighted Score: Emotional lability or exaggerated emotions", "setting": "subject with PCS; [5]", "result": 0}, {"measurement": "Weighted Score: Persistent or frequent irritability", "setting": "subject with PCS; [5]", "result": 0}, {"measurement": "Weighted Score: Persisting difficulty with registration or retention of newly presented information in any modality", "setting": "subject with PCS; Cluster C, raw score x weight 2, prior to therapy 4", "result": 2}, {"measurement": "Weighted Score: Slowed speed of mental processing or responding", "setting": "subject with PCS; Cluster C, raw score x weight 2, prior to therapy 6", "result": 0}, {"measurement": "Weighted Score: Inability to perform two simple tasks concurrently (multitasking)", "setting": "subject with PCS; [6]", "result": 3}, {"measurement": "Weighted Score: Inability to tolerate distraction (e.g., inability to complete simple task or resume conversation after interruption)", "setting": "subject with PCS; [6]", "result": 3}, {"measurement": "Weighted Score: Intolerance of noise, light, or commotion", "setting": "subject with PCS; Cluster C, raw score x weight 4, prior to therapy 12", "result": 4}, {"measurement": "Raw score: Diplopia", "setting": "subject with PCS; Cluster D, prior to therapy 0", "result": 0}, {"measurement": "Raw score: Headache", "setting": "subject with PCS; Cluster D, prior to therapy 1", "result": "2 (Often present)"}, {"measurement": "Raw score: Nystagmus", "setting": "subject with PCS; Cluster D, prior to therapy 1", "result": 0}, {"measurement": "Raw score: Anergy, chronic fatigue, hypersomnia", "setting": "subject with PCS; Cluster D, prior to therapy 2", "result": 0}, {"measurement": "Raw score: Insomnia", "setting": "subject with PCS; Cluster D, prior to therapy 2", "result": "2 (Often present)"}, {"measurement": "Raw score: Difficulty in accommodation or focus", "setting": "subject with PCS; Cluster D, prior to therapy 3", "result": "1 (Sometimes present)"}, {"measurement": "Raw score: Impairment of tracking an object in motion", "setting": "subject with PCS; Cluster D, prior to therapy 3", "result": 0}, {"measurement": "Weighted Score: Insomnia", "setting": "subject with PCS; Cluster D, raw score x weight 1, prior to therapy 2", "result": 2}, {"measurement": "Weighted Score: Diplopia", "setting": "subject with PCS; Cluster D, raw score x weight 2, prior to therapy 0", "result": 0}, {"measurement": "Weighted Score: Headache", "setting": "subject with PCS; Cluster D, raw score x weight 2, prior to therapy 2", "result": 4}, {"measurement": "Weighted Score: Anergy, chronic fatigue, hypersomnia", "setting": "subject with PCS; Cluster D, raw score x weight 3, prior to therapy 6", "result": 0}, {"measurement": "Weighted Score: Difficulty in accommodation or focus", "setting": "subject with PCS; Cluster D, raw score x weight 3, prior to therapy 9", "result": 3}, {"measurement": "Weighted Score: Nystagmus", "setting": "subject with PCS; Cluster D, raw score x weight 4, prior to therapy 4", "result": 0}, {"measurement": "Weighted Score: Impairment of tracking an object in motion", "setting": "subject with PCS; Cluster D, raw score x weight 4, prior to therapy 12", "result": 0}, {"measurement": "Total weighted score of symptoms", "setting": "subject with PCS; prior to therapy 165", "result": 33, "unit": "points"}, {"measurement": "Restoring nerve impulse transmission", "setting": "[1]", "result": "mild to moderate improvements"}]}
